# Oligonucleotides are written 5' to 3', each unit as a sugar letter and its base; * is a phosphorothioate linkage, no mark a phosphodiester; rarer units and linkages stand in square brackets, end groups in braces. Plain capitals give the bases only. e = 2'-O-(2-methoxyethyl) (MOE); k = constrained ethyl (cEt); [5mC] = 5-methylcytosine; d = 2'-deoxy (DNA)
# Experiments:
# AR mRNA [1] = experiment: Antisense inhibition of human AR in HuVEC cells, single concentration (electroporation, qRT-PCR RTS3559); format: cell-based
# Description: Antisense oligonucleotides were designed targeting an AR nucleic acid and were tested for their effects on AR mRNA in vitro. The antisense oligonucleotides were tested in a series of experiments that had similar culture conditions. […] Human primer probe set RTS3559 (forward sequence [NT], designated herein as SEQ ID NO: 9; reverse sequence [NT], designated herein as SEQ ID NO: 10; probe sequence [NT], designated herein as SEQ ID NO: 11) was used to measure mRNA levels. AR mRNA levels were adjusted according to total RNA content, as measured by RIBOGREEN®. […] A total of 155 oligonucleotides were tested. Additional antisense oligonucleotides were designed targeting an AR nucleic acid and were tested for their effects on AR mRNA in vitro. […] Human primer probe set RTS3559 was used to measure mRNA levels. AR mRNA levels were adjusted according to total RNA content, as measured by RIBOGREEN®. […] A total of 82 oligonucleotides were tested. Additional antisense oligonucleotides were designed targeting an AR nucleic acid and were tested for their effects on AR mRNA in vitro. […] Human primer probe set RTS3559 was used to measure mRNA levels. AR mRNA levels were adjusted according to total RNA content, as measured by RIBOGREEN®. […] A total of 40 oligonucleotides were tested. Additional antisense oligonucleotides were designed targeting an AR nucleic acid and were tested for their effects on AR mRNA in vitro. […] Human primer probe set RTS3559 was used to measure mRNA levels. AR mRNA levels were adjusted according to total RNA content, as measured by RIBOGREEN®. […] A total of 75 oligonucleotides were tested. Additional antisense oligonucleotides were designed targeting an AR nucleic acid and were tested for their effects on AR mRNA in vitro. […] Human primer probe set RTS3559 was used to measure mRNA levels. AR mRNA levels were adjusted according to total RNA content, as measured by RIBOGREEN®. […] A total of 616 oligonucleotides were tested. Additional antisense oligonucleotides were designed targeting an AR nucleic acid and were tested for their effects on AR mRNA in vitro. […] Human primer probe set RTS3559 was used to measure mRNA levels. AR mRNA levels were adjusted according to total RNA content, as measured by RIBOGREEN®. […] A total of 385 oligonucleotides were tested.
# AR mRNA [2] = experiment: Dose-dependent antisense inhibition of human AR in HuVEC cells (electroporation, qRT-PCR RTS3559, IC50); format: cell-based; conditions: HuVEC
# Description: (§1) After a treatment period of approximately 16 hours, RNA was isolated from the cells and AR mRNA levels were measured by quantitative real-time PCR. Human AR primer probe set RTS3559 was used to measure mRNA levels. AR mRNA levels were adjusted according to total RNA content, as measured by RIBOGREEN®. […] The antisense oligonucleotides were tested in a series of experiments that had similar culture conditions.
# as §1, §1, §1, §1
# (§2) After a treatment period of approximately 16 hours, RNA was isolated from the cells and AR mRNA levels were measured by quantitative real-time PCR. Human AR primer probe set RTS3559 was used to measure mRNA levels. AR mRNA levels were adjusted according to total RNA content, as measured by RIBOGREEN®.
# as §2
# [3] = Table 35, electroporation, approximately 16 hours
# [4] = Table 30, electroporation, approximately 16 hours
# [5] = Table 33, electroporation, approximately 16 hours
# [6] = Table 20, 500 nM oligonucleotide, electroporation, approximately 24 hours, relative to untreated control
# [7] = Table 32, electroporation, approximately 16 hours
substance,measurement,setting,value
584152 (kG*kA*kG*dT*dT*dG*dT*dG*dA*dT*dT*dT*d[5mC]*kA*kG*kG; antisense) [compound 584152],% inhibition,"AR mRNA [1]; Table 24, 1,000 nM oligonucleotide, electroporation, approximately 24 hours, relative to untreated control",88%
same,"percent inhibition of AR, 46.9 nM",AR mRNA [2]; [3],28%
same,"percent inhibition of AR, 187.5 nM",AR mRNA [2]; [3],59%
same,"percent inhibition of AR, 750.0 nM",AR mRNA [2]; [3],87%
same,"percent inhibition of AR, 3000.0 nM",AR mRNA [2]; [3],95%
same,IC50,AR mRNA [2]; [3],110 nM
"560137 (antisense TTGATTTAATGGTTGC; all C 5-methyl, all phosphorothioate, sugars by position not given here; further chemistry not fully specified) [compound 560137]",% inhibition,"AR mRNA [1]; 250 nM ASO, ~24 h, Table 7",66%
same,% inhibition,"AR mRNA [1]; 500 nM ASO, ~24 h, Table 5",95%
same,percent inhibition of AR,"AR mRNA [2]; 31.25 nM, ~16 h, Table 6",27%
same,percent inhibition of AR,"AR mRNA [2]; 31.25 nM, ~16 h, Table 8",35%
same,percent inhibition of AR,"AR mRNA [2]; 62.5 nM, ~16 h, Table 6",49%
same,percent inhibition of AR,"AR mRNA [2]; 62.5 nM, ~16 h, Table 8",39%
same,percent inhibition of AR,"AR mRNA [2]; 125.0 nM, ~16 h, Table 6",61%
same,percent inhibition of AR,"AR mRNA [2]; 125.0 nM, ~16 h, Table 8",64%
same,percent inhibition of AR,"AR mRNA [2]; 500.0 nM, ~16 h, Table 6",91%
same,percent inhibition of AR,"AR mRNA [2]; 500.0 nM, ~16 h, Table 8",89%
same,percent inhibition of AR,"AR mRNA [2]; 1000.0 nM, ~16 h, Table 6",96%
same,percent inhibition of AR,"AR mRNA [2]; 1000.0 nM, ~16 h, Table 8",94%
same,IC50,"AR mRNA [2]; ~16 h, Table 6",100 nM
same,IC50,"AR mRNA [2]; ~16 h, Table 8",80 nM
583688 (antisense kG*k[5mC]*kG*dG*dT*dA*dG*dT*d[5mC]*dG*d[5mC]*dT*dG*k[5mC]*kA*kG) [compound 583688],% inhibition,"AR mRNA [1]; 500 nM ASO, ~24 h, Table 18",38%
same,"percent inhibition of AR, 46.9 nM",AR mRNA [2]; [4],3%
same,"percent inhibition of AR, 187.5 nM",AR mRNA [2]; [4],26%
same,"percent inhibition of AR, 750.0 nM",AR mRNA [2]; [4],50%
same,"percent inhibition of AR, 3000.0 nM",AR mRNA [2]; [4],60%
same,IC50,AR mRNA [2]; [4],1050 nM
583920 (kT*kA*kG*dT*dA*dG*dT*d[5mC]*dG*d[5mC]*dG*dA*d[5mC]*kT*k[5mC]*kT; antisense) [compound 583920],% inhibition,"AR mRNA [1]; Table 21, 500 nM oligonucleotide, electroporation, approximately 24 hours, relative to untreated control",42%
same,"percent inhibition of AR, 46.9 nM",AR mRNA [2]; [5],11%
same,"percent inhibition of AR, 187.5 nM",AR mRNA [2]; [5],16%
same,"percent inhibition of AR, 750.0 nM",AR mRNA [2]; [5],50%
same,"percent inhibition of AR, 3000.0 nM",AR mRNA [2]; [5],72%
same,IC50,AR mRNA [2]; [5],760 nM
583856 (kA*kA*k[5mC]*d[5mC]*dT*dT*dT*dG*d[5mC]*dA*dT*dT*d[5mC]*kG*kG*k[5mC]; antisense) [compound 583856],% inhibition,AR mRNA [1]; [6],45%
same,"percent inhibition of AR, 46.9 nM",AR mRNA [2]; [7],31%
same,"percent inhibition of AR, 187.5 nM",AR mRNA [2]; [7],55%
same,"percent inhibition of AR, 750.0 nM",AR mRNA [2]; [7],74%
same,"percent inhibition of AR, 3000.0 nM",AR mRNA [2]; [7],89%
same,IC50,AR mRNA [2]; [7],140 nM
583855 (k[5mC]*k[5mC]*kT*dT*dT*dG*d[5mC]*dA*dT*dT*d[5mC]*dG*dG*k[5mC]*k[5mC]*kA; antisense) [compound 583855],% inhibition,AR mRNA [1]; [6],44%
same,"percent inhibition of AR, 46.9 nM",AR mRNA [2]; [7],22%
same,"percent inhibition of AR, 187.5 nM",AR mRNA [2]; [7],50%
same,"percent inhibition of AR, 750.0 nM",AR mRNA [2]; [7],81%
same,"percent inhibition of AR, 3000.0 nM",AR mRNA [2]; [7],91%
same,IC50,AR mRNA [2]; [7],180 nM
569238 (antisense eG*kT*kT*kG*dA*dT*dT*dT*dA*dA*dT*kG*kG*kT*eT*eG) [compound 569238],% inhibition,"AR mRNA [1]; 1,000 nM ASO, ~24 h, Table 13",51%
same,percent inhibition of AR,"AR mRNA [2]; 31.25 nM, ~16 h, Table 14",4%
same,percent inhibition of AR,"AR mRNA [2]; 62.5 nM, ~16 h, Table 14",32%
same,percent inhibition of AR,"AR mRNA [2]; 125.0 nM, ~16 h, Table 14",33%
same,percent inhibition of AR,"AR mRNA [2]; 500.0 nM, ~16 h, Table 14",71%
same,percent inhibition of AR,"AR mRNA [2]; 1000.0 nM, ~16 h, Table 14",88%
same,IC50,"AR mRNA [2]; ~16 h, Table 14",202 nM
